Experimental data taken from PubChem BioAssay AID434987 (Southern Research Specialized Biocontainment Screening …, 2010).
Activity calls are given as the source filed them. No rule for the calls is given here.

System: M. tuberculosis H37Rv growth inhibition with meropenem
Test: dose response, H37Rv, with and without meropenem (AID 434987);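 also: growth over 7 days at 37 °C before Alamar Blue read on day 9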
[1] = M. tuberculosis H37Rv growth inhibition, measured here: IC50 without meropenem
[2] = M. tuberculosis H37Rv growth inhibition, measured here: IC90 without meropenem
[3] = measured here: IC90 with meropenem

Row | SMILES | IC50 | IC50 [1] [µM] | IC90 [2] [µM] | IC90 [3] [µM]
1 | O=c1cc(C(F)(F)F)c2sc(N3CCCCC3)nc2[nH]1 | 45.4 µM (inactive) | > 100 | > 100 | 49.3
2 | C/C(=N\NC(=O)c1cc2c(s1)CCC(C)C2)c1ccc[nH]1 (stereo unspecified) | 6.51 µM | > 100 | > 100 | > 100
3 | c1ccc2nc(-c3nc4ccccc4o3)ccc2c1 | 43.9 µM (inactive) | > 100 | > 100 | > 50
4 | Cn1nc(-c2ccc(OCC(=O)NCC3CCCO3)cc2)c2ccccc2c1=O (stereo unspecified) | > 100 µM (inactive) | > 100 | > 100 | > 100
5 | Cc1ccccc1OCC(=O)N/N=C/c1cccc(Oc2ccc([N+](=O)[O-])cc2[N+](=O)[O-])c1 | 1.14 µM | 4.24 | 47.8 | 5.4
6 | CCC(C)C(NC(N)=O)C(=O)Nc1ccc(OCc2ccccc2)cc1 (stereo unspecified) | > 100 µM (inactive) | > 100 | > 100 | > 100
7 | O=C(CCl)N(c1ccccc1)C1CCS(=O)(=O)C1 (stereo unspecified) | 5.77 µM | 18.2 | 55.6 | 13.9
8 | O=S1(=O)CCO[C@H]2Cc3ccccc3[C@H]2N1Cc1ccc(F)cc1 | > 100 µM (inactive) | > 100 | > 100 | > 100
9 | O=C1OC(/C=C/c2ccc(Cl)cc2Cl)=NC/1=C\c1cccs1 | 4.04 µM | 14.7 | 60.1 | 33.4
10 | COc1ccc([N+](=O)[O-])cc1NC(=O)c1ccc(Br)s1 | > 100 µM (inactive) | > 100 | > 100 | > 100
11 | CC(C)(C)c1ccc(OCc2ccc(C(=O)N/N=C3\CC4CC=CC34)cc2)cc1 (stereo unspecified) | 26.2 µM (inactive) | 31.2 | 46.5 | 45.3
12 | Cc1cc(C)c2c(N)c(S(=O)c3ccc(C(C)(C)C)cc3)sc2n1 (stereo unspecified) | > 100 µM (inactive) | > 100 | > 100 | > 100
13 | COc1ccccc1N1CCN(S(=O)(=O)c2ccc3nc(-c4ccccc4)[nH]c3c2)CC1 | > 100 µM (inactive) | > 100 | > 100 | > 100
14 | Cc1nc(/N=C(\N)NC(=O)c2ccccc2)nc2ccccc12 | – | > 100 | > 100 | > 25
15 | O=C(Nc1nc2ccccc2n1CCN1CCCC1)C1CCCCC1 | 8.68 µM | 23.9 | 47.2 | 27.5
16 | COc1cc(CNCCO)cc(Br)c1OCc1ccccc1Cl | 46.2 µM (inactive) | 47.5 | 53.7 | 52.7
17 | Cc1cccc(NC(=O)Cn2c(=O)n(Cc3ccccc3)c(=O)c3c(C)c(C)sc32)c1 | > 100 µM (inactive) | > 100 | > 100 | > 100
18 | COc1cc(NC(=O)c2cc(-c3cccnc3)nc3ccc(Br)cc23)cc(OC)c1 | > 100 µM (inactive) | > 100 | > 100 | > 100
19 | CCSc1nnc(NC(=O)Cn2cnc3ccccc3c2=O)s1 | > 100 µM (inactive) | > 100 | > 100 | > 100
20 | COc1cccc(/C=N/Nc2nc(N3CCCC3)nc(N3CCCC3)n2)c1O | 8.14 µM | 25.1 | 63.7 | 36.1

Row | SMILES | IC50 | IC50 [1] [µM] | IC90 [2] [µM] | IC90 [3] [µM]
21 | Cc1cc2ccccn2c1C(=O)c1ccc([N+](=O)[O-])o1 | > 100 µM (inactive) | > 100 | > 100 | > 100
22 | O=C(N[C@@H](Cc1ccccc1)C(=O)CCl)OCc1ccccc1 | 8.88 µM (inactive) | 17.3 | 41.9 | 46.9
23 | C#C[C@]1(O)CC[C@H]2[C@@H]3CCC4=C(CCC(=O)C4)[C@H]3CC[C@@]21C | > 100 µM (inactive) | > 100 | > 100 | > 100
24 | CCOC(=O)c1nn(-c2ccc(F)cc2)c2nc(Nc3ccccc3)cc(=O)n12 | > 100 µM (inactive) | > 100 | > 100 | > 100
25 | Cc1ccc(CNC(=O)c2ccccc2NC(=O)CSc2nnnn2C)cc1 | 36.6 µM (inactive) | 81.1 | > 100 | > 100
26 | Cc1ccc(C(=O)Nc2ccc(N3CCN(C(=O)c4cccs4)CC3)cc2)c(Cl)c1 | > 100 µM (inactive) | > 100 | > 100 | > 100
27 | COc1ccc2oc(C(=O)Nc3nc4ccccc4[nH]3)c(C)c2c1 | 1.7 µM | 36.9 | > 100 | > 100
28 | Cc1cc(=O)n2c(-c3ccccc3C)n[nH]c2n1 | 51 µM (inactive) | 62.4 | > 100 | > 100
29 | O=C(OCC(=O)N(Cc1ccccc1)C1CCS(=O)(=O)C1)c1cc2c(s1)CCCC2 (stereo unspecified) | 90.7 µM (inactive) | 94.2 | > 100 | > 100
30 | CCc1nc2scc(-c3cccs3)c2c(=O)o1 | > 100 µM (inactive) | > 100 | > 100 | > 100
31 | CC1(C)CC(CCNC(=O)CCl)(c2ccccc2)CCO1 (stereo unspecified) | 2.38 µM | 9.13 | 34.7 | 8.14
32 | Cc1ccc(/C=C2/SC(=S)N(CC(=O)Nc3ncc(Cc4ccc(C)cc4)s3)C2=O)cc1 | > 100 µM (inactive) | > 100 | > 100 | > 100
33 | CCCCNC(=O)/C(=C/c1ccccc1)NC(C)=O | > 100 µM (inactive) | > 100 | > 100 | > 100
34 | NS(=O)(=O)c1ccc(Sc2nc3ccccc3s2)c([N+](=O)[O-])c1 | > 100 µM (inactive) | > 100 | > 100 | > 100
35 | CCN(CC)c1ccc(C(=O)n2cnc3ccccc32)cc1 | 70.3 µM (inactive) | 91.6 | > 100 | > 100
36 | COC(=O)/C(=C\Nc1ccc(Cl)cc1Cl)NC(=O)c1ccc(Cl)cc1Cl | > 100 µM (inactive) | > 100 | > 100 | > 100
37 | COc1ccc(OC)c(-c2cc(C(=O)Nc3c(C)n(C)n(-c4ccccc4)c3=O)no2)c1 | 17.1 µM | 54 | > 100 | 49.5
38 | CCCn1nnnc1NC(=O)COc1ccc(Cl)cc1C | 12.4 µM (inactive) | 24.3 | 28.6 | 42.9
39 | CCOC(=O)CSc1nnc(CNC(=O)c2cccs2)n1CCc1ccccc1 | 20.1 µM (inactive) | 35.2 | 55.8 | 49.5
40 | CC(C)(C)C1CCC(OCC(O)CN2CCN(c3ccccn3)CC2)CC1 (stereo unspecified) | 100 µM (inactive) | > 100 | > 100 | > 100

Row | SMILES | IC50 | IC50 [1] [µM] | IC90 [2] [µM] | IC90 [3] [µM]
41 | C=C(C)COc1ccc(-c2nc(N)ncc2Oc2ccc(OC)cc2)c(O)c1 | > 100 µM (inactive) | > 100 | > 100 | > 100
42 | COc1ccc(C(=O)Nc2oc(-c3ccccc3)c(-c3ccccc3)c2C#N)cc1OC | 25.2 µM (inactive) | 38.7 | > 100 | > 100
43 | Cc1cccnc1NC(=S)NC(=O)c1cncc(Br)c1 | 4.68 µM | 40.3 | > 100 | > 100
44 | C/C(=N\NC(=S)Nc1ccccc1C)c1ccc(O)cc1 | 0.552 µM | 21.6 | 24.7 | 7.97
45 | CCCC(=O)Nc1nc(-c2ccccc2)ns1 | > 100 µM (inactive) | > 100 | > 100 | > 100
46 | Cc1cccc2c(C(=O)n3cccn3)cc(-c3ccccc3Cl)nc12 | 7.95 µM | 52.7 | > 100 | 26.8
47 | Cc1onc(NC(=O)c2ccc([N+](=O)[O-])o2)c1Br | 6.54 µM | 26.2 | 36 | 16.4
48 | COCCCNCCOCCOc1ccc(C)cc1Br | > 100 µM (inactive) | > 100 | > 100 | > 100
49 | CCCCN=C1CC(C)(C)CC(=O)/C1=C(/O)CCC | 18.9 µM (inactive) | 42.1 | > 100 | 28.7
50 | CCOc1cc(CNCCN(C)C)c(Cl)cc1OCC(=O)NCCc1ccccc1 | > 100 µM (inactive) | > 100 | > 100 | > 100
51 | COc1ccc(OC)c2nc(-c3ccc4c(c3)OCO4)ccc12 | 17.7 µM | > 100 | > 100 | > 25
52 | COc1ccc(C2C(C#N)=C(SCC(=O)Nc3ccc(C)cc3)NC3=C2C(=O)CC(C)(C)C3)cc1 (stereo unspecified) | 94.3 µM (inactive) | > 100 | > 100 | > 100
53 | CN(C(=O)Nc1ccc(Cl)cc1)n1cnc2ccccc2c1=O | 44.9 µM (inactive) | 95.9 | > 100 | 48.6
54 | Cc1ccccc1C(=O)Oc1ccccc1N1C(=O)C2CC=CCC2C1=O (stereo unspecified) | > 100 µM (inactive) | > 100 | > 100 | > 100
55 | COc1ccc(NC(=O)CCc2ccccc2)cc1NC(=O)c1ccco1 | > 100 µM (inactive) | > 100 | > 100 | > 100
56 | O=C(CCN1c2ccccc2Sc2ccccc21)Oc1ccccc1 | 8.48 µM | > 100 | > 100 | > 100
57 | Cc1ccc(C)c(N2CCN(CC3CCCCC3)CC2)c1 | 37.9 µM | 95.9 | > 100 | 52.4
58 | Cc1ccc(-c2nc3[nH]c(=O)cc(NC(=O)C(C)C)n3n2)cc1 | 7.36 µM | > 100 | > 100 | > 12.5
